Each compound was assayed against T1, Proteasome subunit beta type-1 (Homo sapiens, UniProt P20618) (assay: Inhibition of human 20S proteasome post-glutamyl peptide hydrolyzing activity using Z-Leu-Leu-Glu-AMC as substrate measured over 10 mins by fluorescence assay).
T1 sequence (P20618 whole entry): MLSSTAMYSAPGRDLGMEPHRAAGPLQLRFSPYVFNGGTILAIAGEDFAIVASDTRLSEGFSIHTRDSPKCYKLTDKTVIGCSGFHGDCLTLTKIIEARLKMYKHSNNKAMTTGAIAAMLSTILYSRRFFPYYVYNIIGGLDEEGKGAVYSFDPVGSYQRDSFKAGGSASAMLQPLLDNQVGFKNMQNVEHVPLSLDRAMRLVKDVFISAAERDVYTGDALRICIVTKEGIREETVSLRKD

| Ki [µM] | SMILES |
| --- | --- |
| 1.42 | CC(C)C[C@H](NC(=O)Cn1ccc(N2CCCCC2)cc1=O)B(O)O |
| 1.38 | CC(C)C[C@H](NC(=O)Cn1ccccc1=O)B(O)O |
| 0.52 | CC(C)C[C@H](NC(=O)Cn1ccc(N2CCOCC2)cc1=O)B(O)O |
| 3.9 | CC(C)C[C@H](NC(=O)Cn1ccc2c(c1=O)CCCN2C)B(O)O |
| 13.6 | CC(C)C[C@H](NC(=O)[C@H](C)n1ccc2ncccc2c1=O)B(O)O |
| 4.42 | CCN(CC)c1ccn(CC(=O)N[C@@H](CC(C)C)B(O)O)c(=O)c1 |
| 5.14 | CC(C)C[C@H](NC(=O)Cn1ccc(Nc2ccccc2)cc1=O)B(O)O |
